We go through 16 compounds from patent US9073975B2, “Cyclic peptides, their preparation and their use as inhibitors of the platelet adhesion” (SANOFI, priority 2010, dated 2015).

In general, IC50 refers to the midpoint of a concentration-inhibition curve.

The target of this test is T1, recombinant human vWF-A1 domain (Homo sapiens, UniProt P07359).
T1 construct: whole blood drawn from voluntary donors; made in house; host or cells: E. coli (vWF-A1); washed platelets from human donor blood (GPIb, endogenous)
As to the kind of experiment: Static human platelet adhesion to recombinant human vWF-A1 domain. In kind it is cell-based. As to the method:
The activity of compounds of the formula I can be shown by procedures known in the art, for example by determining their inhibition of the binding of platelets to vWF A1 domain in an appropriate assay. To this end, assay plates can be coated with vWF-A1 domain. […] Then fluorescence-labeled thrombocytes are added and incubated for 90 minutes. In a complex washing procedure all non-bound thrombocytes are removed and the plates are measured, for example in a laser-based reader Acumen Explorer or a bulk reader like Spectramax. […] To assess the effect of compounds on the interaction of the GPIb complex on platelets with vWF, an assay system was used measuring binding of human platelets to recombinant human vWF-A1 domain under static conditions in the presence and absence of the compounds. […] Platelet rich plasma was carefully removed, transferred to a fresh container and spun down for 15 min at 120 g. Platelet rich plasma was carefully transferred again to fresh containers, PGE1 (0.5 μg/ml, Sigma) was added and the suspension was allowed to rest for 5 min. This was followed by another centrifugation step for 15 min at 360 g. The supernatant was discarded and the cell pellets were carefully resuspended in tyrode buffer (NaCl, 137 mM (Sigma S-3014); KCl, 2.7 mM (Sigma P-9541); NaHCO3,12 mM ([…] 31437); NaH2PO4×2H2O, 0.36 mM (Merck 6345); […] After 5 min of resting the suspension was spun down for 15 min at 300 g. The supernatant was discarded and the pellets were carefully resuspended in TBS buffer (Tris-HCl, 50 mM (Fluka 93371); NaCl, 120 mM (Sigma S-3014); KCl, 2.7 mM (Sigma P-9541); CaCl2, 0.05 mM (Sigma C-3306); MgCl2×6 H2O, 2 mM (Sigma M-2670); […] The platelet count was adjusted to 2×10^5 cells/μl, and the suspensions from individual donors were pooled at this stage. The platelets were allowed to rest for 30 min at room temperature before calcein AM (2.5 μM per 2×10^5 cells/μl (Molecular Probes C-3099)) was added. This was followed by 15 min incubation in the dark. Cells were diluted to 5×10^4 cells/μl and ReoPro (3 μg/ml (Centocor B. V., Leiden, N L)) was added, followed by a 10 min incubation period in the dark before adding the platelets to the assay plates. 96 well plates (Greiner hb, black, clear bottom, F, 655097) were coated with human recombinant vWF-A1 domain (1.5 μg/well, AA 475-706, expressed in E. coli) in Tris buffer (pH 7.4; Tris-HCl, 25 mM; NaCl, 150 mM) and incubated for 1 h at room temperature. After washing the wells 3× with TBS, blocking buffer (TBS with 5% BSA) was added followed by an incubation for 1 h. The wells were washed again 3× with TBS before 200 μl TBS were added to each well, preventing them from drying out. TBS was flicked out and serial dilutions of the test compound were added. The washed and calcein AM labeled thrombocytes were added to the wells (2.5×10^6 cells/well). Following an adhesion period of 1.5 h in the dark the wells were washed 3× with TBS. Measurement of fluorescence per well was performed in a SpectraMax M5 reader (Molecular Devices). From the raw data % inhibition and IC50 values were calculated.

[1] abbreviates: washed calcein AM labeled human platelets, static conditions, 1.5 h adhesion, read-out: Activity (IC50 for inhibition of the binding of platelets to vWF A1 domain).

Each structure is given as a SMILES string. Where two headings read alike, the source gives them in different places. Starred links: 1 amine or outer side, 2 acyl side, 3 side chain; linkers in the order of their positions; H or OH if unused. Positions of bridges follow the written chain, without caps; N, C: chain ends. Non-standard residues stand in square brackets, D forms with d. Residues, ends and D or L forms follow the SMILES beside them. ξ: configuration not given here. X1 = CSCC[C@H](NN[C@@H](CCCNC(=N)N)C(=O)C(=O)[C@H](CCC(=O)O)N[*:2])C(=O)[*:1]; NHCH2(1,3-C6H4)CH2CO = O=C(Cc1cccc(CN[*:1])c1)[*:2]; X3 = O=C(Cc1ccc(CN[*:1])cc1)[*:2]; Cha = N[C@@H](CC1CCCCC1)C(=O)O; Chg = N[C@H](C(=O)O)C1CCCCC1; Nle = CCCC[C@H](N)C(=O)O; Nva = CCC[C@H](N)C(=O)O; Aoc = NCCCCCCCC(=O)O; Ahp = NCCCCCCC(=O)O; Ahx = NCCCCCC(=O)O; ξA = CC(N)C(=O)O Where only a bound is given, the exact number is not on record here.

T1 sequence (P07359 17-652): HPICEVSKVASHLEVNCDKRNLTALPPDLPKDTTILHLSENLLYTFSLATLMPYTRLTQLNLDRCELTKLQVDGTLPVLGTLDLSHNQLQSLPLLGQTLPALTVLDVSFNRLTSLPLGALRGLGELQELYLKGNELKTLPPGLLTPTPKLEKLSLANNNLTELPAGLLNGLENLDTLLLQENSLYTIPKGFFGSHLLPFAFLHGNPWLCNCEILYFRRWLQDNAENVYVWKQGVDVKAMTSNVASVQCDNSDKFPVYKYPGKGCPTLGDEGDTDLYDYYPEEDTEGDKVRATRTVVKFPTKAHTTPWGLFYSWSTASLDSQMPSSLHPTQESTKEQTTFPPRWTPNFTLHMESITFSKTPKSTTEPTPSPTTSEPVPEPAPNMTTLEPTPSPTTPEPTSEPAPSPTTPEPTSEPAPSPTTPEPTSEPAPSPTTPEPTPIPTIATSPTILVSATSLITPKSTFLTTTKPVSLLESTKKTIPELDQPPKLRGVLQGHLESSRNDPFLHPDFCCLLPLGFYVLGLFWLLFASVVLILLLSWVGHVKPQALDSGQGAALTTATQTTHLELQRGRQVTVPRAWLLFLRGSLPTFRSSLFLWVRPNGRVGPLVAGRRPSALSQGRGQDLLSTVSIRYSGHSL
T1 sequence (P13224 26-206 partner): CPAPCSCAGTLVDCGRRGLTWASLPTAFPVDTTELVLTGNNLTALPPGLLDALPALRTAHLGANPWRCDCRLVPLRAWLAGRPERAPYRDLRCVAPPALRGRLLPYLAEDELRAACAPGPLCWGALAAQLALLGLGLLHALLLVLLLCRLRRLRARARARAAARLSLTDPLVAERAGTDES
T1 sequence (P14770 17-177 partner): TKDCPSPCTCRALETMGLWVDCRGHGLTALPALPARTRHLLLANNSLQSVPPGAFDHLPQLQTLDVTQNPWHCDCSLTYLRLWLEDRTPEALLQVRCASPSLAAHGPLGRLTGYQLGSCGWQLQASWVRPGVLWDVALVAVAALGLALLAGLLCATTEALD

Consider `CSCC[C@@H]1NN[C@@H](CCCNC(=N)N)C(=O)C(=O)[C@H](CCC(=O)O)NC(=O)[C@H]([C@@H](C)O)NC(=O)CCCCCCNC(=O)[C@H](CC(C)C)NC(=O)[C@H](CC(N)=O)NC(=O)[C@H](Cc2cnc[nH]2)NC(=O)[C@H](CC(C)C)NC(=O)C(C)NC1=O` (stereo partly drawn) [Example 1, Cyclo[Leu-His-Asn-Leu-NH—(CH2)6—CO-Thr-Glu-Arg-Met-Ala]] ([ξA]LHNL[Ahp]T; linker N-C via X1), for which the IC50 under setting [1] was below 1000 nM.
With `CSCC[C@@H]1NC(=O)[C@H](CCCNC(=N)N)NC(=O)[C@H](CCC(=O)O)NC(=O)[C@H]([C@@H](C)O)NC(=O)Cc2cccc(c2)CNC(=O)[C@H](CC(C)C)NC(=O)[C@H](CC(N)=O)NC(=O)[C@H](Cc2c[nH]cn2)NC(=O)[C@H](CC(C)C)NC(=O)[C@H](C)NC1=O` [Example 2, Cyclo[Leu-His-Asn-Leu-NH-X4-X3-X2-X1-CO-Thr-Glu-Arg-Met-Ala]] (cyclo(ALHNL[NHCH2(1,3-C6H4)CH2CO]TERM)), the IC50 is below 1000 nM.
On the same count and under the same terms, then `CSCC[C@@H]1NC(=O)[C@H](CCCNC(=N)N)NC(=O)[C@H](CCC(=O)O)NC(=O)[C@H]([C@@H](C)O)NC(=O)Cc2ccc(cc2)CNC(=O)[C@H](CC(C)C)NC(=O)[C@H](CC(N)=O)NC(=O)[C@H](Cc2c[nH]cn2)NC(=O)[C@H](CC(C)C)NC(=O)[C@H](C)NC1=O` [Example 3, Cyclo[Leu-His-Asn-Leu-NH-X4-X3-X2-X1-CO-Thr-Glu-Arg-Met-Ala]] (cyclo(ALHNL[X3]TERM)), with 1000 to 10000 nM.
On to `CSCC[C@@H]1NC(=O)[C@H](CCCNC(=N)N)NC(=O)[C@H](CCC(=O)O)NC(=O)[C@H]([C@@H](C)O)NC(=O)[C@@H](NC(C)=O)CCCCNC(=O)[C@H](CC(C)C)NC(=O)[C@H](CC(N)=O)NC(=O)[C@H](Cc2c[nH]cn2)NC(=O)[C@H](CC(C)C)NC(=O)[C@H](C)NC1=O` [Example 5, Cyclo[Leu-His-Asn-Leu-NH-X4-X3-X2-X1-CO-Thr-Glu-Arg-Met-Ala]] (Ac-KTERMALHNL; lactam 1-C), for which the IC50 under setting [1] is 1000 to 10000 nM.
On the same count and under the same terms, then `CSCC[C@@H]1NC(=O)[C@H](CCCNC(=N)N)NC(=O)[C@H](CCC(=O)O)NC(=O)[C@H]([C@@H](C)O)NC(=O)CCCCCCCNC(=O)[C@H](CC(C)C)NC(=O)[C@H](CC(N)=O)NC(=O)[C@H](Cc2c[nH]cn2)NC(=O)[C@H](CC(C)C)NC(=O)[C@H](C)NC1=O` [Example 6, Cyclo[Leu-His-Asn-Leu-NH—(CH2)7—CO-Thr-Glu-Arg-Met-Ala]] (cyclo(ALHNL[Aoc]TERM)), with below 1000 nM.
Same read-out and setting: then `CSCC[C@@H]1NC(=O)[C@H](CCCCN)NC(=O)[C@H](CCC(=O)O)NC(=O)[C@H]([C@@H](C)O)NC(=O)CCCCCCNC(=O)[C@H](CC(C)C)NC(=O)[C@H](CC(N)=O)NC(=O)[C@H](Cc2c[nH]cn2)NC(=O)[C@H](CC(C)C)NC(=O)[C@H](C)NC1=O` [Example 7, Cyclo[Leu-His-Asn-Leu-NH—(CH2)6—CO-Thr-Glu-Lys-Met-Ala]] (cyclo(ALHNL[Ahp]TEKM)), with 1000 to 10000 nM.
Consider `CSCC[C@@H]1NC(=O)[C@H](CCCNC(=N)N)NC(=O)[C@H](CCC(=O)O)NC(=O)[C@H](CC(=O)O)NC(=O)CCCCCCNC(=O)[C@H](CC(C)C)NC(=O)[C@H](CC(N)=O)NC(=O)[C@H](Cc2c[nH]cn2)NC(=O)[C@H](CC(C)C)NC(=O)[C@H](C)NC1=O` [Example 10, Cyclo[Leu-His-Asn-Leu-NH—(CH2)6—CO-Asp-Glu-Arg-Met-Ala]] (cyclo(ALHNL[Ahp]DERM)), for which the IC50 under setting [1] is 1000 to 10000 nM.
On the same count and under the same terms, then `CSCC[C@@H]1NC(=O)[C@H](CCCNC(=N)N)NC(=O)[C@H](CCC(=O)O)NC(=O)[C@H]([C@@H](C)O)NC(=O)CCCCCNC(=O)[C@H](CC(C)C)NC(=O)[C@H](CC(N)=O)NC(=O)[C@H](Cc2c[nH]cn2)NC(=O)[C@H](CC(C)C)NC(=O)[C@H](C)NC1=O` [Example 11, Cyclo[Leu-His-Asn-Leu-NH—(CH2)5—CO-Thr-Glu-Arg-Met-Ala]] (cyclo(ALHNL[Ahx]TERM)), with 1000 to 10000 nM; and `CCCC[C@@H]1NC(=O)[C@H](C)NC(=O)[C@H](CCSC)NC(=O)[C@H](CCCNC(=N)N)NC(=O)[C@H](CCC(=O)O)NC(=O)[C@H]([C@@H](C)O)NC(=O)CCCCCCNC(=O)[C@H](CC(C)C)NC(=O)[C@H](CC(N)=O)NC(=O)[C@H](Cc2c[nH]cn2)NC1=O` [Example 13, Cyclo[Nle-His-Asn-Leu-NH—(CH2)6—CO-Thr-Glu-Arg-Met-Ala]] (cyclo(A[Nle]HNL[Ahp]TERM)), with 1000 to 10000 nM.
Same read-out and setting: in the case of `CC[C@H](C)[C@@H]1NC(=O)[C@H](C)NC(=O)[C@H](CCSC)NC(=O)[C@H](CCCNC(=N)N)NC(=O)[C@H](CCC(=O)O)NC(=O)[C@H]([C@@H](C)O)NC(=O)CCCCCCNC(=O)[C@H](CC(C)C)NC(=O)[C@H](CC(N)=O)NC(=O)[C@H](Cc2c[nH]cn2)NC1=O` [Example 14, Cyclo[Ile-His-Asn-Leu-NH—(CH2)6—CO-Thr-Glu-Arg-Met-Ala]] (cyclo(AIHNL[Ahp]TERM)) it was 1000 to 10000 nM.
Same read-out and setting: then `CSCC[C@@H]1NC(=O)[C@H](CCCNC(=N)N)NC(=O)[C@H](CCC(=O)O)NC(=O)[C@H]([C@@H](C)O)NC(=O)CCCCCCNC(=O)[C@H](CC(C)C)NC(=O)[C@H](CC(N)=O)NC(=O)[C@H](Cc2c[nH]cn2)NC(=O)[C@H](CC2CCCCC2)NC(=O)[C@H](C)NC1=O` [Example 16, Cyclo[Cha-His-Asn-Leu-NH—(CH2)6—CO-Thr-Glu-Arg-Met-Ala]] (cyclo([Cha]HNL[Ahp]TERMA)), with below 1000 nM.
Consider `CC(C)C[C@@H]1NC(=O)[C@H](C)NC(=O)[C@H](CC2CCCCC2)NC(=O)[C@H](CCCNC(=N)N)NC(=O)[C@H](CCC(=O)O)NC(=O)[C@H]([C@@H](C)O)NC(=O)CCCCCCNC(=O)[C@H](CC(C)C)NC(=O)[C@H](CC(N)=O)NC(=O)[C@H](Cc2c[nH]cn2)NC1=O` [Example 17, Cyclo[Leu-His-Asn-Leu-NH—(CH2)6—CO-Thr-Glu-Arg-Cha-Ala]] (cyclo(ALHNL[Ahp]TER[Cha])), for which the IC50 under setting [1] was below 1000 nM.
On the same count and under the same terms, then `CC[C@H](C)[C@@H]1NC(=O)[C@H](CCCNC(=N)N)NC(=O)[C@H](CCC(=O)O)NC(=O)[C@H]([C@@H](C)O)NC(=O)CCCCCCNC(=O)[C@H](CC(C)C)NC(=O)[C@H](CC(N)=O)NC(=O)[C@H](Cc2c[nH]cn2)NC(=O)[C@H](CC(C)C)NC(=O)[C@H](C)NC1=O` [Example 18, Cyclo[Leu-His-Asn-Leu-NH—(CH2)6—CO-Thr-Glu-Arg-Ile-Ala]] (cyclo(ALHNL[Ahp]TERI)), with 1000 to 10000 nM.
As to `CCC[C@@H]1NC(=O)[C@H](C)NC(=O)[C@H](CCSC)NC(=O)[C@H](CCCNC(=N)N)NC(=O)[C@H](CCC(=O)O)NC(=O)[C@H]([C@@H](C)O)NC(=O)CCCCCCNC(=O)[C@H](CC(C)C)NC(=O)[C@H](CC(N)=O)NC(=O)[C@H](Cc2c[nH]cn2)NC1=O` [Example 19, Cyclo[Nva-His-Asn-Leu-NH—(CH2)6—CO-Thr-Glu-Arg-Met-Ala]] (cyclo(A[Nva]HNL[Ahp]TERM)), the IC50 under setting [1] is below 1000 nM.
As for `CSCC[C@@H]1NC(=O)[C@H](CCCNC(=N)N)NC(=O)[C@H](CCC(=O)O)NC(=O)[C@H]([C@@H](C)O)NC(=O)CCCCCCNC(=O)[C@H](CC(C)C)NC(=O)[C@H](CC(N)=O)NC(=O)[C@H](Cc2c[nH]cn2)NC(=O)[C@H](C2CCCCC2)NC(=O)[C@H](C)NC1=O` [Example 20, Cyclo[Chg-His-Asn-Leu-NH—(CH2)6—CO-Thr-Glu-Arg-Met-Ala]] (cyclo(A[Chg]HNL[Ahp]TERM)), under setting [1], the IC50 was 1000 to 10000 nM.
Still for that read-out and setting: then `CSCC[C@@H]1NC(=O)[C@H](CCCNC(=N)N)NC(=O)[C@H](CCC(=O)O)NC(=O)[C@H](Cc2c[nH]cn2)NC(=O)CCCCCCNC(=O)[C@H](CC(C)C)NC(=O)[C@H](CC(N)=O)NC(=O)[C@H](Cc2c[nH]cn2)NC(=O)[C@H](CC(C)C)NC(=O)[C@H](C)NC1=O` [Example 21, Cyclo[Leu-His-Asn-Leu-NH—(CH2)6—CO-His-Glu-Arg-Met-Ala]] (cyclo(ALHNL[Ahp]HERM)), with 1000 to 10000 nM.
